The source of these data is US20260240740A1, “MULTI-PHOTOPROTECTIVE COMPOUNDS AND USES THEREOF” (SKINOSIVE, priority 2022, published 2026).

Molecules are shown by their SMILES.

For one data set, the system named is pig skin. As to the kind of experiment: UV protection ex vivo on pig skin by autofluorescence quenching. The settings on record: for UVB protection after ethanol wash compared to the initial protection before washing: pig skin. The method, then:
UV Protection Performance of Compound #2 (OOD) UVB and UVA protections have been assessed ex vivo on pig skin by measuring the autofluorescence quenching. OOD (Compound #2), the mix of DHHB+OCR were solubilized at the same molar concentration in Dottisol (isosorbide dimethyl ether), covered 6.25 cm2 skin square and incubated 20 min or 2 hours at room temperatures, and then 7 mm skin punches were cut and placed in a black 96-well plate. UVB and UVA protections were measured after respectively an excitation at 300 nm and 355 nm and a fluorescence emission was read at 460 nm. DMSO was added on the pig skin before the reading of the residual fluorescence.
UVB and UVA protections have been assessed ex vivo on pig skin by measuring the autofluorescence quenching. BOO (Compound #5) and the mix of BEMT+OCR were solubilized at the same molar concentration in Dottisol (isosorbide dimethyl ether), covered 6.25 cm^2 skin square and incubated 4 hours at 34° C., washed or not with 10 mL Ethanol for 5 min, and then 7 mm diameter skin punches were cut and placed in a black 96-well plate. UVB and UVA protections were measured after respectively an excitation at 300 nm and 355 nm and a fluorescence emission was read at 460 nm.
UVB protection has been assessed ex vivo on pig skin by measuring the autofluorescence quenching. BOO (Compound #5), BOO-OM (Compound #6) and the mix of BEMT+OCR were solubilized at the same molar concentration in DMDA (dimethyl capramide), covered 6.25 cm2 skin square and incubated 2 hours at 34° C., washed or not with 10 mL Ethanol for 5 min, and then 7 mm diameter skin punches were cut and placed in a black 96-well plate. UVB protection was measured after respectively an excitation at 300 nm and a fluorescence emission was read at 460 nm.

Data set [1] in a line: Photostability after UV irradiation, absorbance spectra. The format is physicochemical. Particulars: Dubdis. The method, then: (§1) Compound #2 (OOD), Univul A plus (DHHB), Octocrylene (OCR), and Univul A plus (DHHB)+Octocrylene (OCR) were dissolved in Ethanol at 1 mM and were irradiated at 2000 and 4000 J/dm2 for 1 h and 2 h in a 24-well plate, respectively, in 2 replicates (1 replicate for HPLC and 1 replicate for absorbance spectra).
(§2) Compound #4 (OHD), Univul A plus (DHHB), Octocrylene (OCR), and Univul A plus (DHHB)+Octocrylene (OCR) were dissolved in Ethanol at 1 mM and were irradiated at 2000 and 4000 J/dm2 for 1 h and 2 h in a 24-well plate, respectively, in 2 replicates (1 replicate for HPLC and 1 replicate for absorbance spectra).
(§3) Compound #5 (BOO), Tinosorb S (BEMT), and Octocrylene (OCR) were dissolved in Dubdis at 2 mM and were irradiated at 4000 J/dm2 for 2 h in a 24-well plate, respectively, in 2 replicates (1 replicate for HPLC and 1 replicate for absorbance spectra).

Data set [2] is described as follows: UV absorbance profile: λmax in solvents, FLUOstar plate reader. The format is physicochemical. Particulars: for λmax double peak, first peak / λmax double peak, second peak: 50 μM; for λmax absorbance shift in UVB versus the mix of BEMT-OCR: same molar concentration, same shift in Dottisol. The method, then: Compound #2 (OOD), Univul A plus (DHHB)+Octocrylene (OCR) were dissolved in a solvent at the same concentration (125 μM).
Compound #4 (OHD), Univul A plus (DHHB)+Octocrylene (OCR) were dissolved in a solvent at the same concentration (125 μM).
Compound #5 (BOO) and BEMT (6,6′-(6-(4-methoxyphenyl)-1,3,5-triazine-2,4-diyl)bis(3-((2-ethylhexyl)oxy)phenol)=Tinosorb S)+Octocrylene (OCR) were dissolved in a solvent at the same concentration (50 μM).
UV Absorbance Profil of Compound #6 (BOO-OM) Compound #6 (BOO-OM) and BEMT (6,6′-(6-(4-methoxyphenyl)-1,3,5-triazine-2,4-diyl)bis(3-((2-ethylhexyl)oxy)phenol)=Tinosorb S)+Octocrylene (OCR) were dissolved in a solvent at the same concentration (50 μM).

The nature of data set [3]: Photostability after UV irradiation, HPLC. Particulars: Dubdis. The format is physicochemical. The procedure:
as §1, §2, §3

The subject of data set [4] is thiolated polylysine matrix. As to the kind of experiment: Bio adhesion on thiolated polylysine matrix (UV absorbance at 310 nm after ethanol washes). Particulars: overnight incubation in ethanol/PBS (90%/10%), washed 10 times with ethanol. The procedure: (§4) Polylysine and Polylysine enriched in SH by thiolation of primary amines using Traut's reagent were used for coating 96-well microplates. UV filters (BOO and BOO-OM) were incubated overnight under orbital agitation on the different matrices (n=3 for each condition) (uncoated wells were used as negative controls), in an ethanol/PBS (90%/10%) solution. After incubation, each microplate well was thoroughly washed 10 times with ethanol, before measuring UV absorbance. Whole UV/Visible absorbance spectrum from 220 to 1000 nm were measured in the center of each microplate well. In addition, specific UV absorbance at 310 nm was measured by matrix scan over the whole the well as a 10×10 matrix.

A short description of data set [5]: Solubility in sunscreen solvents. It is filed as physicochemical. Particulars: 50° C. The procedure: Compound #2 (OOD) and a sunscreen solvent were weighed in a Becher. The Becher was placed on a magnetic stir plate, heated up to 50° C., and the solution was vigorously mixed with a bar magnet.
Compound #4 (OHD) and a sunscreen solvent were weighed in a Becher. The Becher was placed on a magnetic stir plate, heated up to 50° C., and the solution was vigorously mixed with a bar magnet.
Compound #5 (BOO) and a sunscreen solvent were weighed in a Becher. The Becher was placed on a magnetic stir plate, heated up to 50° C., and the solution was vigorously mixed with a bar magnet.
Compound #6 (BOO-OM) and a sunscreen solvent were weighed in a Becher. The Becher was placed on a magnetic stir plate, heated up to 50° C., and the solution was vigorously mixed with a bar magnet.

Data set [6] concerns polylysine matrix (non thiolated). As to the kind of experiment: Bio adhesion on polylysine matrix (non thiolated). The settings on record: overnight incubation in ethanol/PBS (90%/10%), washed 10 times with ethanol. The method, then: as §4
Where [7] appears, read: pig skin autofluorescence after 2 h of incubation, DMDA (dimethyl capramide), Mean +/− SD, N = 3.
Setting [8] is: pig skin autofluorescence after 2 h of incubation, DMDA, 10 mL Ethanol 5 min, Mean +/− SD, N = 3.
Where [9] appears, read: pig skin autofluorescence after 4 h of incubation, Dottisol, 10 mL Ethanol 5 min, Mean +/− SD, N = 3.
Where [10] appears, read: pig skin autofluorescence after 4 h of incubation, Dottisol, Mean +/− SD, N = 3.

Turning to `CCCCC(CC)COc1ccc(-c2nc(-c3ccc(OC)cc3)nc(-c3ccc(OCC(CC)CCCC)cc3OCCCCCCCCNC(=O)C(C#N)=C(c3ccccc3)c3ccccc3)n2)c(O)c1` (centres unmarked) [Compound #5, 2-cyano-N-(8-(5-((2-ethylhexyl)oxy)-2-(4-(4-((2-ethylhexyl)oxy)-2-hydroxyphenyl)-6-(4-methoxyphenyl)-1,3,5-triazin-2-yl)phenoxy)octyl)-3,3-diphenylacrylamide], in the data set on pig skin (4 h incubation, Dottisol), the “UVA and UVB protections of the pig skin compared to the mix OCR+BEMT” value is on record as “similar”. Besides, the “UVB Fluorescence (Ex300/Em460) No Wash” value in the data set on pig skin (setting [7]) is reported as 42968 +/− 3131. The “UVB Fluorescence (Ex300/Em460) EtOH Wash” value with pig skin (setting [8]) is given as 152417 +/− 17275. Moreover, in the data set on pig skin (setting [9]), the “UVA Fluorescence (Ex355/Em460) EtOH Wash” value is given as 217235 +/− 4204 and the “UVB Fluorescence (Ex300/Em460) EtOH Wash” value is reported as 205205 +/− 3116. Also, in the data set on pig skin (setting [10]), the “UVA Fluorescence (Ex355/Em460) No Wash” value is recorded as 49672 +/− 9882 and the “UVB Fluorescence (Ex300/Em460) No Wash” value is on record as 49009 +/− 9100. The “UVB protection after ethanol wash compared to the initial protection before washing” value in the data set on pig skin (2 h incubation, DMDA) is on record as “decreased three times”. Further, in data set [1] (2 mM), the “Absorbance peak, Without UV irradiation, first or only peak” value stood at 301 nm and the “Absorbance peak, Without UV irradiation, second peak” value is recorded as 323 nm. For the same compound, in data set [1] (2 mM, 2 h), the “Absorbance peak, Irradiation 4000 J/dm2, first or only peak” value turned out to be 301 nm and the “Absorbance peak, Irradiation 4000 J/dm2, second peak” value turned out to be 324 nm. In addition, in data set [1] (2 mM, 2 h, listed as BOO), the “Absorbance peak, Irradiation 4000 J/dm2, second peak” value amounted to 323 nm. Besides, the “Effect of irradiation on UV absorbance profiles and λmax” value in data set [1] (UVB and UVA range, 4000 J/dm2 for 2 hours) was “did not modify”. For the same compound, in data set [2] (Dottisol), the “λmax double peak, first peak” value was found to be 301 nm and the “λmax double peak, second peak” value is given as 324 nm. In data set [2] (Dubdis), the “λmax double peak, first peak” value was found to be 301 nm; the “λmax double peak, second peak” value is given as 323 nm; the “λmax absorbance shift in UVB versus the mix of BEMT-OCR” value is given as 10 nm. In data set [3], the “degradation observed by HPLC after irradiation” value is “No degradation”; the “purity by HPLC after irradiation” value was 98.13%; the “purity by HPLC, non-irradiated” value worked out at 98.88%. Further, the “bio adhesion, UV absorbance at 310 nm” value in data set [4] is on record as “did not show a bio adhesion”.
As to `CCCCC(CC)COc1ccc(-c2nc(-c3ccc(OC)cc3)nc(-c3ccc(OCC(CC)CCCC)cc3OCCCCCCCCN3C(=O)C=CC3=O)n2)c(OCCCCCCCCNC(=O)C(C#N)=C(c2ccccc2)c2ccccc2)c1` (centres unmarked) [Compound #6, 2-cyano-N-(8-(2-(4-(2-((8-(2,5-dioxo-2,5-dihydro-1H-pyrrol-1-yl)octyl)oxy)-4-((2-ethylhexyl)oxy)phenyl)-6-(4-methoxyphenyl)-1,3,5-triazin-2-yl)-5-((2-ethylhexyl)oxy)phenoxy)octyl)-3,3-diphenylacrylamide], the “UVB protection of the pig skin compared to the mix OCR+BEMT” value with pig skin (2 h incubation, DMDA) is given as “similar”. Further, in the data set with pig skin (conclusion from UVB protection after ethanol wash), the “bio adhesive (pig skin, ethanol wash)” value is recorded as “is bio adhesive”. For the same compound, in the data set on pig skin (setting [7]), the “UVB Fluorescence (Ex300/Em460) No Wash” value is listed as 40608 +/− 3466. Moreover, the “UVB Fluorescence (Ex300/Em460) EtOH Wash” value in the data set on pig skin (setting [8]) is 108875 +/− 4401. The “UVB protection after ethanol wash compared to the initial protection before washing” value in the data set on pig skin (2 h incubation, DMDA) is listed as “reduced twice”. For the same compound, the figures for the soluble at ratio in data set [5] (Dimethyl capramide (Spectrasolv DMDA)), in data set [5] (Dottisol (dimethyl isosorbide)) and in data set [5] (Dubdis (Diisopropyl sebacate)) were 1/10, “½” and “½”, respectively. Also, the “λmax double peak, first peak” value is on record as 290 nm in data set [2] (Dottisol) and 289 nm in data set [2] (Dubdis). The “λmax double peak, second peak” value came out at 307 nm in data set [2] (Dottisol) and 309 nm in data set [2] (Dubdis). Further, in data set [2] (Dubdis), the “λmax absorbance shift in UVB versus the mix of BEMT-OCR” value is at least 20 nm. The bioadhesion entry in data set [6] is reported as “no bioadhesion”. In addition, in data set [4], the “bio adhesion, UV absorbance at 310 nm” value is “showed a bio adhesion”.
